Tested on: C57BL/6J inbred strain female mice
Assay: Survival after 8 Gy whole body γ-irradiation, intraperitoneal dosing 4 hours before or after (Example 4)
Type: in vivo
Settings: 10 mg/kg 4 hr before Radiation 8 Gy
Description: β-lapachone is prepared at 10 mg/ml in 40% hydroxypropyl-beta-cyclodextrin (HPBCD).
C57BL/6J inbred strain female mice (4-5 weeks old) are used. Animals are maintained in a climate-controlled animal facility.
Animals are injected with different concentrations of β-lapachone (20 and 40 mg/kg body weight) intraperitoneally 4 hours before or after irradiation.
Whole body irradiation of animals with 8 Gy of γ-rays is carried out in air at room temperature in a gamma chamber (Gammacell 40 Exactor), at a dose-rate of 1.05 Gy/min. This radiation dose is within the range of equivalent human exposures predicted in many scenarios of radiologic or nuclear terrorist attack.
Mice are divided into the following groups (each Group comprises four mice receiving identical treatment):
Group II: Mice are injected with β-lapachone 20 mg/kg body weight 4 hours before radiation.
Group III: Mice are injected with β-lapachone 40 mg/kg body weight 4 hours before radiation.
Group IV: Mice are injected with β-lapachone 20 mg/kg body weight 4 hours after radiation.
Group V: Mice are injected with β-lapachone 40 mg/kg body weight 4 hours after radiation.
Group VI: Mice are injected with amifostine 10 mg/kg body weight 4 hours before radiation.
Animals are irradiated with 8 Gy at 1.05 Gy/min dose-rate. After irradiation mice are returned to their cage and observed on a regular basis. Exposure to γ-rays causes lethality in animals. Importantly, treatment with β-lapachone, especially at a level of 40 mg/kg prior to irradiation, diminishes the death rate.

With NCCCNCCSP(=O)(O)O [Amifostine, reference compound] the “Median survival time” value was 12 days, the “No. of animals surviving at 20 days post-irradiation” value (4 animals) was 0 and the “Death rate (%)” value (20 days) was 100%. For the same molecule, the “Median survival time in days” value (listed as amifostine) was “little or no effect”.

From patent publication US7649013B2, “Methods of protecting against radiation injury” (priority 2003, dated 2010)
